Molecular target: Keap1 (Homo sapiens (Human), UniProt Q14145)
Assay: HEK293 ARE luciferase assay
Format: cell-based
Conditions: HEK-293 ARE firefly luciferase transiently transfected cells; 18 h incubation; mean of 1 to 20 individual measurements
How it was run: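 Transiently transfected HEK-293 ARE firefly luciferase cells (10,000/well, DMEM with 10% FCS) exposed to compound, 10-point curve from 100 μM top, 0.3% DMSO, 18 h at 37 °C. SteadyGlo luminescence; activity normalised to 30 μM tBHQ (stimulator) and DMSO (neutral), activity threshold 50; means of 1-20 measurements.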

Chain of Keap1 (Q14145 whole entry): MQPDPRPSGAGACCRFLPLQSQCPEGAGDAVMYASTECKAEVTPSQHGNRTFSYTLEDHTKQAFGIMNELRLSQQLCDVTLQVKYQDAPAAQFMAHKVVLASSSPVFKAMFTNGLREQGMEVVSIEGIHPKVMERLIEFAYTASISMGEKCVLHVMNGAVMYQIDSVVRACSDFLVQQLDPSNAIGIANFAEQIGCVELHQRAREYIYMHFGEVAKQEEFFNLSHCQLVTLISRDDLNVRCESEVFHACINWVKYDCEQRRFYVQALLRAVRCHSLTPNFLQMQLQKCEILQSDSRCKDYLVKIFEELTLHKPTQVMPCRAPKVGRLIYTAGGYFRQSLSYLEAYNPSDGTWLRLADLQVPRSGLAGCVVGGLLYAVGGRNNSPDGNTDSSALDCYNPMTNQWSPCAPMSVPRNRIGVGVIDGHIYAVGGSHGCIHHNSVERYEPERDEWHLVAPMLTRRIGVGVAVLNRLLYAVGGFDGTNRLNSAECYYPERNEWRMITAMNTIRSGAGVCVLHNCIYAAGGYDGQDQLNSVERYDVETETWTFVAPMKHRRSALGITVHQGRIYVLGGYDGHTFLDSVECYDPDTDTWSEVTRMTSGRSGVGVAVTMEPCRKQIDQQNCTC

Compound	EC50
COC1(c2ncc(F)cc2-c2cnc(C)s2)C=C(C#N)C(=O)C(C)(C)C1 (single isomer, unassigned) [Compound 73, 3-[5-fluoro-3-(2-methyl-1,3-thiazol-5-yl)pyridin-2-yl]-3-methoxy-5,5-dimethyl-6-oxocyclohex-1-ene-1-carbonitrile]	7 nM
COC1(c2ncc(F)cc2-c2cnc(C)nc2)C=C(C#N)C(=O)C(C)(C)C1 (stereo not shown) [Compound 183, 3-[5-fluoro-3-(2-methylpyrimidin-5-yl)pyridin-2-yl]-3-methoxy-5,5-dimethyl-6-oxocyclohex-1-ene-1-carbonitrile]	121 nM
COC1(c2ncc(F)cc2-c2cnnc(C)c2)C=C(C#N)C(=O)C(C)(C)C1 (single isomer, unassigned) [Compound 209, 3-[5-fluoro-3-(6-methylpyridazin-4-yl)pyridin-2-yl]-3-methoxy-5,5-dimethyl-6-oxocyclohex-1-ene-1-carbonitrile]	15 nM
COC1(c2ncc(Cl)cc2Cl)C=C(C#N)C(=O)C(C)(C)C1 (single isomer, unassigned) [Compound 225, 3-(3,5-dichloropyridin-2-yl)-3-methoxy-5,5-dimethyl-6-oxocyclohex-1-ene-1-carbonitrile]	12 nM
COC1(c2ncc(F)cc2-c2cccn(C)c2=O)C=C(C#N)C(=O)C(C)(C)C1 (stereo not shown) [Compound 171, 3-(5-fluoro-1′-methyl-2′-oxo[1′,2′-dihydro[3,3′-bipyridine]]-2-yl)-3-methoxy-5,5-dimethyl-6-oxocyclohex-1-ene-1-carbonitrile]	136 nM
COC1(c2ncc(F)cc2OC(F)F)C=C(C#N)C(=O)C2(CC2)C1 (single isomer, unassigned) [Compound 62, 7-[3-(difluorometh-oxy)-5-fluoropyridin-2-yl]-7-methoxy-4-oxospiro[2.5]oct-5-ene-5-carbonitrile]	15 nM
COC1(c2ncc(C)s2)C=C(C#N)C(=O)C2(CC2)C1 (stereo not shown) [Compound 64, 7-methoxy-7-(5-methyl-1,3-thiazol-2-yl)-4-oxospiro[2.5]oct-5-ene-5-carbonitrile]	145 nM
CCOC1(c2ccc(F)cn2)C=C(C#N)C(=O)C(C)(C)C1 (stereo not shown) [Compound 145, 3-ethoxy-3-(5-fluoropyridin-2-yl)-5,5-dimethyl-6-oxocyclohex-1-ene-1-carbonitrile]	65 nM
COC1(c2ncc(F)cc2-c2cn(C)nc2C)C=C(C#N)C(=O)C(C)(C)C1 (stereo not shown) [Compound 172, 3-[3-(1,3-dimethyl-1H-pyrazol-4-yl)-5-fluoropyridin-2-yl]-3-methoxy-5,5-dimethyl-6-oxocyclohex-1-ene-1-carbonitrile]	8 nM
CC#Cc1cccc(C2(OC)C=C(C#N)C(=O)C(C)(C)C2)n1 (stereo not shown) [Compound 103, 3-Methoxy-5,5-dimethyl-6-oxo-3-(6-(prop-1-ynyl)pyridin-2-yl)cyclohex-1-enecarbonitrile]	77 nM
COC1(c2ncc(F)cc2-c2c(C)nn(C)c2C)C=C(C#N)C(=O)C(C)(C)C1 (stereo not shown) [Compound 187, 3-[5-fluoro-3-(1,3,5-trimethyl-1H-pyrazol-4-yl)pyridin-2-yl]-3-methoxy-5,5-dimethyl-6-oxocyclohex-1-ene-1-carbonitrile]	77 nM
COC1(c2ncccc2C(F)(F)F)C=C(C#N)C(=O)C(C)(C)C1 (single isomer, unassigned) [Compound 15, 3-methoxy-5,5-dimethyl-6-oxo-3-(3-(trifluoromethyl)pyridin-2-yl)cyclohex-1-enecarbonitrile]	24 nM
COC1(c2ncc(F)cc2-c2cnn(C)c2C)C=C(C#N)C(=O)C(C)(C)C1 (single isomer, unassigned) [Compound 71, 3-[3-(1,5-dimethyl-1H-pyrazol-4-yl)-5-fluoropyridin-2-yl]-3-methoxy-5,5-dimethyl-6-oxocyclohex-1-ene-1-carbonitrile]	9 nM

From patent US11479539B2, “Small molecule modulators of the BTB domain of Keap1” (MedImmune Limited, priority 2017, dated 2022)
